Data: US20160151451A1, “METHOD FOR GENERATING CARDIOMYOCYTES” (Korea Advanced Institute of Science and Technology (KAIST), priority 2014, published 2016)
Structures can show the parent of a compound that is named as a salt. Where two headings read alike, the source gives them in different places.

Legend:
[1] = tested on: mouse ESC-derived Flk1^+ MPCs; assay: Differentiation of mouse ESC-derived Flk1^+ MPCs into cardiomyocytes in OP9 co-culture; format: cell-based; conditions: for optimal dose of reagent, determined by total and relative number of differentiated cTnT^+ cells: dose optimization, FIGS. 2A-D
Description: (§1) For induction of Flk1^+ MPCs, ESCs and iPSCs were cultured without LIF and plated on a 0.1% gelatin-coated dish at cell density 1-1.5×10^3 cells/cm^2 in the differentiation medium (alpha MEM, Invitrogen) with 10% fetal bovine serum (FBS) (Welgene), 2-mercaptoethanol (Invitrogen), L-glutamine (Invitrogen), and antibiotics (Invitrogen), which was changed every 2 days, for 4.5 days. At day 4.5, differentiated ESCs and iPSCs were harvested with 0.25% trypsin-EDTA and antigen recovery was performed in the differentiation medium for 30 min in an incubator. Then, cells were washed using phosphate buffered saline (PBS)/2% FBS and incubated with biotin-conjugated anti-mouse Flk1^+ antibody (clone AVAS 12a1, eBioscience) and […] MicroBeads (Miltenyi Biotec). Flk1^+ MPCs were sorted by AutoMACS Pro Separator (Miltenyi Biotec). For induction of cardioblasts and cardiomyocytes, sorted Flk1^+ MPCs were plated onto the MMC (AG scientific) treated confluent OP9 cells at a density of 5-10×10^3 cells/cm^2. For the induction of cardiomyocytes in a feeder free system, ESCs were plated on a 0.1% gelatin coated dish at cell density 3×10^3 cells/cm^2 without OP9 cells. Cells were cultured in the differentiation medium which was changed every 2 days.
CsA (a gift from Novartis Pharma, Korea), 6-Hydroxy-2,5,7,8-tetramethylchroman-2-carboxylic acid (Trolox, Sigma Aldrich), and EW7197 (Son et al., 2014) were dissolved in dimethyl sulfoxide (DMSO, Sigma Aldrich). Y27632 (Calbiochem) was dissolved in distilled water. Reagents were treated at the time of medium change. DMSO was treated as a control vehicle.
(§2) Differentiating Flk1^+ MPCs on OP9 cells were harvested with 0.25% trypsin-EDTA or dissociation buffer (Invitrogen). […] To analyze cTnT^+ cells, the cells were permeabilized using Cytofix/Cytoperm solution (BD Biosciences) for 15 min. […] After washing in 10% Perm/Wash buffer (BD Biosciences), the cells were incubated for 10 min with Cy5-conjugated anti-mouse IgG antibody (Invitrogen). The cells were washed with 10% Perm/Wash buffer (BD Biosciences) and then analyzed. In live cell analysis and sorting, dead cells were excluded using 4,6-diamidino-2-phenylindole (DAPI, Invitrogen) and OP9 cells were excluded from Flk1^+ MPCs by gating in flow cytometry. The differentiated cardiomyocytes were sorted using αMHC-GFP. Analyses and sorting were performed by FACS Aria II (Beckton Dickinson). Data were analyzed using FlowJo Version 7.5.4 software (TreeStar).
The cells were fixed with 2% paraformaldehyde (PFA) and blocked with 5% goat (or donkey) serum in PBST (0.1% Tween 20 in PBS) for 1 hr at room temperature (RT). […] After being washed with PBST 3 times, the cells were incubated for 2 hr at room temperature with the following secondary antibodies: Cy3-conjugated anti-mouse IgG antibody (Invitrogen), FITC-conjugated anti-rat IgG (Jackson ImmunoResearch), and Cy3-conjugated anti-rabbit IgG (Jackson ImmunoResearch) antibodies. After being stained with the antibodies, the cells were mounted in fluorescent mounting medium (DAKO). Nuclei were stained with 4,6-diamidino-2-phenylindole (DAPI, Invitrogen). Immunofluorescence staining of mitochondria was performed using MitoTracker Orange CMTMRos probe (Invitrogen) and cells were incubated with probe for 30 to 60 min at 37° C. in serum free medium before fixation. Immunocytochemistry stained images were obtained using an LSM510 confocal fluorescence microscope (Carl Zeiss). Live images of cardiomyocyte differentiation process and αMHC GFP^+ cardiomyocytes were obtained using Axiovert 200M microscope (Carl Zeiss) equipped with AxioCam MRm (Carl Zeiss). Images were analyzed using Image J software (http://imagej.nih.gov/ij/, 1.47V, NIH, USA). Phase-contrast images including beating cardiomyocytes were obtained using an Infinity X digital camera and DpxView LE software (DeltaPix).

[2] = tested on: mouse ESC-derived Flk1^+ MPCs; assay: Induction of PDGFRα^+Flk1^− cardioblasts (PCBs) from mouse ESC-derived Flk1^+ MPCs; format: cell-based; conditions: each reagent of CsAYTE alone; FIGS. 11A, 11B
Description: as §1
Differentiating Flk1^+ MPCs on OP9 cells were harvested with 0.25% trypsin-EDTA or dissociation buffer (Invitrogen). […] To analyze cTnT^+ cells, the cells were permeabilized using Cytofix/Cytoperm solution (BD Biosciences) for 15 min. […] The cells were washed with 10% Perm/Wash buffer (BD Biosciences) and then analyzed. […] Data were analyzed using FlowJo Version 7.5.4 software (TreeStar).
The cells were fixed with 2% paraformaldehyde (PFA) and blocked with 5% goat (or donkey) serum in PBST (0.1% Tween 20 in PBS) for 1 hr at room temperature (RT). […] Immunocytochemistry stained images were obtained using an LSM510 confocal fluorescence microscope (Carl Zeiss). […] Images were analyzed using Image J software (http://imagej.nih.gov/ij/, 1.47V, NIH, USA). […]

[3] = tested on: PCBs; assay: PCB-derived cardiomyocyte differentiation with indicated reagents after PCB induction, OP9 co-culture; format: cell-based, mouse; conditions: FIGS. 14B, 14C
Description: as §2

[4] = tested on: delayed rectifying K^+ channels
[5] = tested on: voltage-gated Na^+ channels; format: cell-based, mouse
[6] = tested on: ROCK; format: cell-based
Source text: The meaning of “Rho-associated protein kinase (ROCK) inhibitor” is well known in the art. An assay for determining a ROCK suppressor or ROCK inhibitor can include for example the following method. ROCKs were discovered as the first effectors of Rho and they induce the formation of stress fibers and focal adhesions by phosphorylating MLC (myosin light chain). Therefore, an assay for determining ROCK suppression is confirming MLC phosphorylation inhibition such as by Western blotting.

[7] = tested on: T-type Ca^2+ channels; assay: Voltage-clamp recording of T-type Ca^2+ current (ICaT) in M^+CMs; format: cell-based, mouse; conditions: 1 μM
[8] = in combination with CsA, data not shown

## NC(=O)c1ncn([C@@H]2O[C@H](CO)[C@@H](O)[C@H]2O)c1N [AICAR]
[1]
  effect on Flk1^+ MPC differentiation into cTnT^+ cells: rather inhibited or did not affect

## Cc1c[nH]c(-c2cnc(NCCNc3ccc(C#N)cn3)nc2-c2ccc(Cl)cc2Cl)n1 [CHIR99021]
[1]; [8]
  effect on Flk1^+ MPC differentiation into cTnT^+ cells: rather inhibited or did not affect

## c1cc(-c2cnn3cc(-c4ccc(OCCN5CCCCC5)cc4)cnc23)ccn1 [Compound C]
[1]; [8]
  effect on Flk1^+ MPC differentiation into cTnT^+ cells: rather inhibited or did not affect

## C[C@H](NC(=O)Cc1cc(F)cc(F)c1)C(=O)N[C@H](C(=O)OC(C)(C)C)c1ccccc1 [DAPT]
[1]; [8]
  effect on Flk1^+ MPC differentiation into cTnT^+ cells: rather inhibited or did not affect

## Cc1cccc(-c2[nH]c(CNc3ccccc3F)nc2-c2ccc3ncnn3c2)n1 [EW7197, N-[[4-([1,2,4]triazolo[1,5-a]pyridin-6-yl)-5-(6-methylpyridin-2-yl)-1H-imidazol-2-yl]methyl]-2-fluoroaniline]
[1]
  optimal dose of reagent, determined by total and relative number of differentiated cTnT^+ cells: 1 µg/mL
[2]
  Flk1^+ MPC differentiation into PCBs by each reagent: 45.3%
[3]
  effect of omission of the reagent from CsAYTE on population of cTnT^+ and αMHC-GFP^+ cells: slightly increased

## CCC(=O)NC[C@H](Cc1ccc(OCCc2nc(-c3ccccc3)oc2C)cc1)N/C(C)=C\C(=O)c1ccc(C(F)(F)F)cc1 [GW6471]
[1]; [8]
  effect on Flk1^+ MPC differentiation into cTnT^+ cells: rather inhibited or did not affect

## Cn1c2ccccc2c2c3c(c4c5ccccc5n(CCC#N)c4c21)CNC3=O [Go6976]
[1]; [8]
  effect on Flk1^+ MPC differentiation into cTnT^+ cells: rather inhibited or did not affect

## CCCCCCOC(=O)[C@]1(O)C[C@@H]2O[C@@]1(C)n1c3ccccc3c3c4c(c5c6ccccc6n2c5c31)C(=O)NC4 [KT5720]
[1]; [8]
  effect on Flk1^+ MPC differentiation into cTnT^+ cells: rather inhibited or did not affect

## COC(=O)[C@@]1(OC)C[C@H]2O[C@]1(C)n1c3ccccc3c3c4c(c5c6ccccc6n2c5c31)C(=O)N(C)C4 [KT5823]
[1]; [8]
  effect on Flk1^+ MPC differentiation into cTnT^+ cells: rather inhibited or did not affect

## O=S(=O)(c1cccc2c(I)cccc12)N1CCCNCC1 [ML7]
[1]; [8]
  effect on Flk1^+ MPC differentiation into cTnT^+ cells: rather inhibited or did not affect

## COc1cccc(-c2cc(=O)c3ccccc3o2)c1N [PD98059]
[1]; [8]
  effect on Flk1^+ MPC differentiation into cTnT^+ cells: rather inhibited or did not affect

## CC[N+](CC)(CC)CC [TEA, tetraethylammonium]
[4]
  delayed rectifier K^+ current (IK): inhibited

## NC1=N[C@H](O)[C@H]2[C@H]3O[C@]4(O)O[C@@H]([C@@H](O)[C@@]2(N1)[C@@H]4O)[C@]3(O)CO [TTX, tetrodotoxin]
[5]
  voltage gated Na^+ current (INa): inhibited

## Cc1c(C)c2c(c(C)c1O)CCC(C)(C(=O)O)O2 (stereo not drawn) [Trolox, 6-hydroxy-2,5,7,8-tetramethylchroman-2-carboxylic acid]
[1]
  optimal dose of reagent, determined by total and relative number of differentiated cTnT^+ cells: 400 µM
[2]
  Flk1^+ MPC differentiation into PCBs by each reagent: 19.3%

## C[C@@H](N)[C@H]1CC[C@H](C(=O)Nc2ccncc2)CC1 [Y27632, [(+)-(R)-trans-4-(1-aminoethyl)-N-(4-pyridyl)cyclohexanecarboxamidedihydrochloride]]
[1]
  optimal dose of reagent, determined by total and relative number of differentiated cTnT^+ cells: 10 µM
[2]
  Flk1^+ MPC differentiation into PCBs by each reagent: 22.0%
[6]
  MLC phosphorylation in Flk1^+ MPCs during differentiation: inhibits

## COCC(=O)O[C@]1(CCN(C)CCCc2nc3ccccc3[nH]2)CCc2cc(F)ccc2[C@@H]1C(C)C [mibefradil]
[7]
  T-type Ca^2+ currents (ICaT): inhibited
